Laboratory results taken from ChEMBL document CHEMBL1649287, “Postantibiotic effect of ceftaroline against gram-positive organisms” (2009).
In brackets after ≈: the same amount, converted by molar mass.

How the values were obtained:
Type in all cases: functional
Staphylococcus aureus [1] = test: Antimicrobial activity against methicillin-resistant, vancomycin-susceptible Staphylococcus aureus vs1 assessed as time required to induce sub-MIC effect at 0.2 times MIC after 1 hr by plate counting method; details: vs1, 1 h
Enterococcus faecalis [2] = test: Antimicrobial activity against vancomycin-resistant Enterococcus faecalis 609 assessed as time required to induce sub-MIC effect at 0.2 times MIC after 1 hr by plate counting method; details: Enterococcus faecalis, 609, 1 h
Streptococcus pneumoniae [3] = test: Antimicrobial activity against Penicillin-susceptible Streptococcus pneumoniae ATCC 49617 assessed as time required to induce post antibiotic sub-MIC effect at 0.2 times MIC after 1 hr by plate counting method; details: ATCC 49617, 1 h
Enterococcus faecalis [4] = test: Antimicrobial activity against vancomycin-resistant Enterococcus faecalis 609 assessed as time required to induce sub-MIC effect at 0.3 times MIC after 1 hr by plate counting method; details: Enterococcus faecalis, 609, 1 h
Staphylococcus aureus [5] = test: Antimicrobial activity against methicillin-susceptible, vancomycin-susceptible Staphylococcus aureus ATCC 29213 assessed as time required to induce post antibiotic sub-MIC effect at 0.3 times MIC after 1 hr by plate counting method; details: ATCC 29213, 1 h
Enterococcus faecalis [6] = test: Antimicrobial activity against vancomycin-sensitive Enterococcus faecalis 20 assessed as time required to induce post antibiotic sub-MIC effect at 0.3 times MIC after 1 hr by plate counting method; details: Enterococcus faecalis, 20, 1 h
Staphylococcus aureus [7] = test: Antimicrobial activity against methicillin-susceptible, vancomycin-susceptible Staphylococcus aureus sox1 assessed as time required to induce sub-MIC effect at 0.4 times MIC after 1 hr by plate counting method; details: sox1, 1 h
Staphylococcus aureus [8] = test: Antimicrobial activity against methicillin-resistant, vancomycin-resistant Staphylococcus aureus 770 assessed as time required to induce sub-MIC effect at 0.4 times MIC after 1 hr by plate counting method; details: Staphylococcus aureus, 770, 1 h
Enterococcus faecalis [9] = test: Antimicrobial activity against vancomycin-sensitive Enterococcus faecalis 10 assessed as time required to induce sub-MIC effect at 0.4 times MIC after 1 hr by plate counting method; details: Enterococcus faecalis, 10, 1 h
Staphylococcus aureus [10] = test: Antimicrobial activity against methicillin-resistant, vancomycin-susceptible Staphylococcus aureus vs1 assessed as time required to induce post antibiotic sub-MIC effect at 0.4 times MIC after 1 hr by plate counting method; details: vs1, 1 h
Streptococcus pneumoniae [11] = test: Antimicrobial activity against Penicillin-intermediate Streptococcus pneumoniae s1234 by microdilution method
Streptococcus pneumoniae [12] = test: Antimicrobial activity against Penicillin-, erythromycin-resistant Streptococcus pneumoniae 37 by microdilution method
Staphylococcus aureus [13] = test: Antimicrobial activity against methicillin-resistant, vancomycin-intermediate Staphylococcus aureus 510 by microdilution method
Enterococcus faecalis [14] = test: Antimicrobial activity against vancomycin-sensitive Enterococcus faecalis 20 by microdilution method

CCO/N=C(\C(=O)N[C@@H]1C(=O)N2C(C(=O)[O-])=C(Sc3nc(-c4cc[n+](C)cc4)cs3)CS[C@H]12)c1nsc(NP(=O)(O)O)n1 [CEFTAROLINE FOSAMIL]
time (Staphylococcus aureus [1]): 0.4 h
time (Enterococcus faecalis [2]): 1.4 h
PAE (Streptococcus pneumoniae [3]): 4.1 h
time (Enterococcus faecalis [4]): 1.4 h
PAE (Staphylococcus aureus [5]): 4.5 h
PAE (Enterococcus faecalis [6]): 8.6 h
PAE (Staphylococcus aureus [7]): 1.6 h
time (Staphylococcus aureus [8]): 0.6 h
time (Enterococcus faecalis [9]): 1.8 h
time (Staphylococcus aureus [10]): 6.7 h
MIC (Streptococcus pneumoniae [11]): 0.12 µg/mL (≈ 0.175 µM)
MIC (Streptococcus pneumoniae [12]): 0.25 µg/mL (≈ 0.365 µM)
MIC (Staphylococcus aureus [13]): 0.5 µg/mL (≈ 0.73 µM)
MIC (Enterococcus faecalis [14]): 0.5 µg/mL (≈ 0.73 µM)
